Measurements: ChEMBL document CHEMBL4251585, “Accelerated skin wound healing by selective 11β-Hydroxylase (CYP11B1) inhibitors” (Eur J Med Chem, 2018)

Assays:
[1] = Cytotoxicity against human epidermal keratinocytes assessed as cell viability at 11 uM after 72 hrs by MTT assay relative to control; set-up: species or system Keratinocyte; settings: read-out: Activity
[2] = target: T1, 11-beta-hydroxysteroid dehydrogenase type 2 (Homo sapiens, UniProt P80365); test: Inhibition of human 11beta-HSD2 expressed in HEK293 cell lysates at 200 uM using [1,2,6,7-3H]-cortisol as substrate preincubated for 10 mins followed by substrate addition in presence of NAD by scintillation counting relative to control; set-up: species or system Lysate
T1 sequence (P80365 whole entry): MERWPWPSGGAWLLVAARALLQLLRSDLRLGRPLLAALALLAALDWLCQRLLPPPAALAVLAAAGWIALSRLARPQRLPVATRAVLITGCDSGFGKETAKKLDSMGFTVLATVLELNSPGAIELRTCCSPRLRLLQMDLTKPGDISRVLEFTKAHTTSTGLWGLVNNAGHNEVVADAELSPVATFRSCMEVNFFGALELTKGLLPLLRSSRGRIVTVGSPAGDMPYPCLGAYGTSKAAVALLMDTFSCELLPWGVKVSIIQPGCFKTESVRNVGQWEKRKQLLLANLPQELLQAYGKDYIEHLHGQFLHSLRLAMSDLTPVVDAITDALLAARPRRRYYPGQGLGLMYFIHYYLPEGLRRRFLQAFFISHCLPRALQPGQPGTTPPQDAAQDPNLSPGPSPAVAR

Salmonella typhimurium [3] = test: Mutagenicity in Salmonella typhimurium TA98 up to 100 uM in absence of rat liver S9 fraction by Ames 2 assay; type: toxicity, organism-based; settings: salmonella enterica subsp. enterica serovar typhimurium
CYP19A1 (aromatase) = target: T2, CYP19A1 (aromatase) (Homo sapiens, UniProt P11511); test: Inhibition of human placental microsomal CYP19A1 at 2 uM using [1beta-3H]androstenedione after 21 mins by liquid scintillation spectrometry; type: ADME; settings: placental microsomes, probe [1beta-3H]androstenedione
T2 sequence (P11511 whole entry): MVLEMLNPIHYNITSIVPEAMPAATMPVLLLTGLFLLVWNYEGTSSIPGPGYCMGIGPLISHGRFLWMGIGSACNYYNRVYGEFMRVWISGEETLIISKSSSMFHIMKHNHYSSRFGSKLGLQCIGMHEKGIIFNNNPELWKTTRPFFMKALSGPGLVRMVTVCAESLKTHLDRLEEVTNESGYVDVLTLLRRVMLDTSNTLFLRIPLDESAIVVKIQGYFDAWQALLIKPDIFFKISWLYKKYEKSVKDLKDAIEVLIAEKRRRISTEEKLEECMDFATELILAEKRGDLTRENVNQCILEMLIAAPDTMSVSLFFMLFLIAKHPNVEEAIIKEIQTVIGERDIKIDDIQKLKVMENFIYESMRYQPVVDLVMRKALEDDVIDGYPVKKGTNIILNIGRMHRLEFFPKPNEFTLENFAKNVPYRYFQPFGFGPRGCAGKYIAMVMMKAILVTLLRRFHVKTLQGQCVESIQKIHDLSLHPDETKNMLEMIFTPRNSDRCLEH

[4] = target: T3, Cytochrome P450 11B1, mitochondrial (Homo sapiens, UniProt P15538); test: Inhibition of human CYP11B1 expressed in hamster V79MZ cells using [1,2-3H]-11-deoxycorticosterone as substrate after 6 hrs by HPTLC analysis; type: cell-based
T3 sequence (P15538 whole entry): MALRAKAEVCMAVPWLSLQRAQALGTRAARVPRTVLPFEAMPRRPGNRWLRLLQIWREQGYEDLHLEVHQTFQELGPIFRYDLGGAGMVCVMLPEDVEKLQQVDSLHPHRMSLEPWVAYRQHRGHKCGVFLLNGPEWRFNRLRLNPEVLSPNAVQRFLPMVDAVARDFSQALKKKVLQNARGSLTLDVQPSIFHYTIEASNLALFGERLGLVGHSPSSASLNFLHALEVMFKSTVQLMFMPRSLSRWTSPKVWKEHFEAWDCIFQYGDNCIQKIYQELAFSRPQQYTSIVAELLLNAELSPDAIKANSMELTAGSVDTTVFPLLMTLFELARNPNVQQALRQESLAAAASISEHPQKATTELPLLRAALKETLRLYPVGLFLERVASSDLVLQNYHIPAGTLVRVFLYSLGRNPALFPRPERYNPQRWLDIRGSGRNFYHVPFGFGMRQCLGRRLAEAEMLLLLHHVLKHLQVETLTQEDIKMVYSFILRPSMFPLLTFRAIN

Salmonella typhimurium [5] = test: Mutagenicity in Salmonella typhimurium TA7001/7002/7003/7004/7005/7006 up to 100 uM in absence of rat liver S9 fraction by Ames 2 assay; type: toxicity, organism-based; settings: salmonella enterica subsp. enterica serovar typhimurium
Zone of skin [6] = test: Induction of wound healing in human skin explant assessed as re-epithelialization at 5 uM administered topically for 3 days measured on day 2 post administration by hematoxylin-eosin-saffron staining based microscopic analysis (reference value: 28 +/- 2%); type: functional
[7] = Half life in human liver S9 fraction at 1 uM up to 60 mins in presence of NADPH/UDPGA by LC-MS/MS analysis; type: ADME, subcellular
Salmonella typhimurium [8] = test: Mutagenicity in Salmonella typhimurium TA7001/7002/7003/7004/7005/7006 up to 100 uM in presence of rat liver S9 fraction by Ames 2 assay; type: toxicity, organism-based; settings: salmonella enterica subsp. enterica serovar typhimurium
Zone of skin [9] = test: Induction of wound healing in human skin explant assessed as re-epithelialization at 5 uM administered topically for 3 days measured on day 1 post administration by hematoxylin-eosin-saffron staining based microscopic analysis (reference value: 13 +/- 7%); type: functional
[10] = Half life in human plasma at 1 uM up to 150 mins by LC-MS/MS analysis; type: ADME, cell-free
[11] = target: T4, 11-beta-hydroxysteroid dehydrogenase 1 (Homo sapiens, UniProt P28845); test: Inhibition of human 11beta-HSD1 expressed in HEK293 cell lysates at 200 uM using [1,2-3H]-cortisone as substrate preincubated for 10 mins followed by substrate addition in presence of NADPH by scintillation counting relative to control
Target sequence in this assay (P28845 whole entry, looked up): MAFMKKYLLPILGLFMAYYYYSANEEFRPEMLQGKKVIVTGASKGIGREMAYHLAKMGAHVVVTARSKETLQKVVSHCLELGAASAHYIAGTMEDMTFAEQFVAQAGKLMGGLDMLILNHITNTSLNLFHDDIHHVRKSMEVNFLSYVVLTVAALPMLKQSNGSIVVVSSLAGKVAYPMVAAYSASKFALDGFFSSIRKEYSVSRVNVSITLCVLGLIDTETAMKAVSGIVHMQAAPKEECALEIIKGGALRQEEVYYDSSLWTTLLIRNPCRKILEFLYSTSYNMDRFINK

Zone of skin [12] = test: Induction of wound healing in human skin explant assessed as re-epithelialization at 5 uM administered topically for 3 days measured on day 3 post administration by hematoxylin-eosin-saffron staining based microscopic analysis relative to control; type: functional
Salmonella typhimurium [13] = test: Mutagenicity in Salmonella typhimurium TA98 up to 100 uM in presence of rat liver S9 fraction by Ames 2 assay; type: toxicity, organism-based; settings: salmonella enterica subsp. enterica serovar typhimurium
CYP17A1 = target: T5, CYP17A1 (Homo sapiens, UniProt P05093); test: Inhibition of human CYP17A1 expressed in Escherichia coli XL1 at 2 uM using [3H]-progesterone as substrate preincubated with substrate for 5 mins measured after 45 mins by HPLC analysis; type: ADME; settings: human CYP17A1 expressed in Escherichia coli XL1, probe [3H]-progesterone
T5 sequence (P05093 whole entry): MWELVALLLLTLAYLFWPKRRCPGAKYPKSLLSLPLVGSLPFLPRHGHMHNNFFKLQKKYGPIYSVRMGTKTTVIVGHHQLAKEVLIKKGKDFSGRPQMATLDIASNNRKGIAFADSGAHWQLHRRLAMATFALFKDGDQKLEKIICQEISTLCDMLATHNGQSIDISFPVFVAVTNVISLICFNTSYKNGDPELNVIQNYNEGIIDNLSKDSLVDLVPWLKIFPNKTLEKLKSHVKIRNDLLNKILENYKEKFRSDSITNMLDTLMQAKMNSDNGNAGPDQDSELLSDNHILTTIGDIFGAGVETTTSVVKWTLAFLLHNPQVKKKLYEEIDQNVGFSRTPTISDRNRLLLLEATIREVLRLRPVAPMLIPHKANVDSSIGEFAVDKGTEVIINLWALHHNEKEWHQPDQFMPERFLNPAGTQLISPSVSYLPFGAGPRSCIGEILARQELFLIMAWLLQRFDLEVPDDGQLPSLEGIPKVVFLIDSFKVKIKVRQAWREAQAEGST

[14] = target: T4, 11-beta-hydroxysteroid dehydrogenase 1; test: Inhibition of human 11beta-HSD1 expressed in HEK293 cell lysate using [1,2-3H]-cortisone as substrate preincubated for 10 mins followed by substrate addition in presence of NADPH by scintillation counting
Target sequence in this assay (P28845 whole entry): as the sequence (P28845 whole entry, looked up) above

[15] = target: T1, 11-beta-hydroxysteroid dehydrogenase type 2; test: Inhibition of human 11beta-HSD2 expressed in HEK293 cell lysates at 10 uM using [1,2,6,7-3H]-cortisol as substrate preincubated for 10 mins followed by substrate addition in presence of NAD by scintillation counting relative to control; set-up: species or system Lysate
[16] = target: T4, 11-beta-hydroxysteroid dehydrogenase 1; test: Inhibition of human 11beta-HSD1 expressed in HEK293 cell lysates at 50 uM using [1,2-3H]-cortisone as substrate preincubated for 10 mins followed by substrate addition in presence of NADPH by scintillation counting relative to control
Target sequence in this assay (P28845 whole entry, looked up): as the sequence (P28845 whole entry, looked up) above

SMILES | inhibition (INH) [2] | inhibition at 0.35 h, 2 µM (CYP19A1 (aromatase)) [%] | IC50 [4] [nM] | half-life at 1 µM [7] [min] | inhibition [11] [%] | inhibition at 0.75 h, 2 µM (CYP17A1) [%] | further results
COc1cncc(Cc2ccc(-c3ccccc3F)nc2)c1 | Not Active | 2 | 0.8 | 19 | 48 | 5 | viability at 72 h, 11 µM [1]: 87%; Activity (Salmonella typhimurium [3]): Non-Toxic; Activity (Salmonella typhimurium [5]): Non-Toxic; Activity (Zone of skin [6]): 89%; Activity (Salmonella typhimurium [8]): Non-Toxic; Activity (Zone of skin [9]): 10%; half-life at 1 µM [10]: > 150 min; Activity (Zone of skin [12]): 98%; Activity (Salmonella typhimurium [13]): Non-Toxic
Oc1cncc(Cc2cc(-c3ccccc3)no2)c1 | – | – | 120 | – | – | – | –
Cn1nc(-c2ccccc2)cc1Cc1cncc(O)c1 | – | 0 | 17 | 33 | – | 10 | IC50 [14]: 1620 nM; inhibition (INH) [15]: Not Active
Oc1cncc(Cc2cnc(-c3ccccc3)s2)c1 | – | – | 77 | – | – | – | –
Oc1cncc(Cc2ccc(-c3ccccc3F)nc2)c1 | – | 1 | 29 | 21 | – | – | –
CC(C)(C(=O)c1cccnc1)c1cccnc1 [METYRAPONE] | Not Active | 0 | – | 49 | 70 | – | inhibition [16]: 54%
